Laboratory results taken from patent US20220184071A1, “GEPOTIDACIN FOR USE IN THE TREATMENT OF BACTERIAL URINARY TRACT INFECTIONS” (GlaxoSmithKline Intellectual Property Development Limited, priority 2019, published 2022).
Converted amounts (≈) assume the structure as drawn.

Assays:
E. coli = assay: Gepotidacin MIC90 for common uUTI pathogens (stated in conclusions); type: cell-based; conditions: Escherichia coli
K. pneumoniae = assay: Phase IIa baseline uropathogen susceptibility testing (CLSI broth microdilution); type: cell-based, Klebsiella pneumoniae; conditions: Klebsiella pneumoniae; Participant 7; read-out: GEP MIC
Description: This phase IIa single center study evaluated the safety, tolerability, pharmacokinetics, and efficacy of oral gepotidacin 1500 mg BID for 5 days in female subjects with acute cystitis. Clean catch mid-stream urine specimens were obtained for quantitative culture by standard methods. Urine samples were taken from all participants pre-treatment (baseline) and at all post-baseline visits. All urine samples were sent to a central laboratory (PPD Global Clinical Laboratories, Highland Heights, Ky., USA) for Gram stain, quantitative culture, pathogen identification and susceptibility testing. See FIG. 1 for participant disposition and study outline.
Susceptibility testing by CLSI broth microdilution and gradient diffusion (fosfomycin only) was conducted (CLSI, 2015, Methods for dilution antimicrobial susceptibility tests for bacteria that grow aerobically; approved standard-tenth edition; and CLSI, 2018. Performance Standards for Antimicrobial Susceptibility Testing; Twenty-seventh Informational Supplement M100-S28). Inclusion in the microbiological intent-to-treat population (micro-ITT), required growth of a qualifying baseline uropathogen (≥10^5 CFU/mL). See FIG. 2 for the baseline algorithm.

[1] = test system: Porphyromonas, non-speciated; assay: MIC by agar dilution, drug-resistant isolates; type: cell-based; conditions: 1 isolate
Description: (§1) Antimicrobial activity was determined by agar dilution using the Clinical and Laboratory Standards Institute (CLSI) recommended procedure.
(§2) The compounds were tested in serial two-fold dilutions and the minimum inhibitory concentration (MIC) was determined as the lowest concentration of the compound that inhibited visible growth. Gepotidacin was tested against 333 gram-negative anaerobic and 203 gram-positive anaerobic isolates collected from clinical samples in North America and Europe from 2000 to 2017; the majority collected from 2013 to 2016.
(§3) Additional analysis was performed from the results of the study described in Method 1 above, to determine the in vitro activity of gepotidacin against gram-negative and gram-positive anaerobic organisms with resistance to ceftriaxone, clindamycin, imipenem, metronidazole, moxifloxacin and piperacillin/tazobactam.

[2] = test system: Lactobacillus, non-speciated; assay: MIC by agar dilution, drug-resistant isolates; type: cell-based
Description: as §1, §2, §3

Porphyromonas somerae = assay: MIC by agar dilution, drug-resistant isolates; type: cell-based; conditions: clindamycin R; 1 isolate
Description: as §1, §2, §3

Lactobacillus rhamnosus = assay: MIC by agar dilution, drug-resistant isolates; type: cell-based; conditions: imipenem R; 18 isolates
Description: as §1, §2, §3

[3] = test system: Veillonella, non-speciated; assay: MIC by agar dilution, drug-resistant isolates; type: cell-based
Description: as §1, §2, §3

Bacteroides fragilis = assay: MIC by agar dilution, drug-resistant isolates; type: cell-based
Description: as §1, §2, §3

Bifidobacterium longum = assay: MIC by agar dilution, drug-resistant isolates; type: cell-based; conditions: moxifloxacin R; 1 isolate
Description: as §1, §2, §3

Porphyromonas levii = assay: MIC by agar dilution, drug-resistant isolates; type: cell-based; conditions: metronidazole R; 1 isolate
Description: as §1, §2, §3

Bacteroides vulgatus = assay: MIC by agar dilution, drug-resistant isolates; type: cell-based
Description: as §1, §2, §3

[4] = test system: Prevotella melaninogenica; assay: MIC by agar dilution, drug-resistant isolates; type: cell-based; conditions: 1 isolate
Description: as §1, §2, §3

Eubacterium nodatum = assay: MIC by agar dilution, drug-resistant isolates; type: cell-based; conditions: metronidazole R; 1 isolate
Description: as §1, §2, §3

Bacteroides caccae = assay: MIC by agar dilution, drug-resistant isolates; type: cell-based
Description: as §1, §2, §3

Eubacterium limosum = assay: MIC by agar dilution, drug-resistant isolates; type: cell-based; conditions: moxifloxacin R; 2 isolates
Description: as §1, §2, §3

Lactobacillus gasseri = assay: MIC by agar dilution, drug-resistant isolates; type: cell-based; conditions: clindamycin R; 2 isolates
Description: as §1, §2, §3

[5] = test system: Bacteroides thetaiotaomicron; assay: MIC by agar dilution, drug-resistant isolates; type: cell-based
Description: as §1, §2, §3

Bifidobacterium breve = assay: MIC by agar dilution, drug-resistant isolates; type: cell-based; conditions: moxifloxacin R; 1 isolate
Description: as §1, §2, §3

[6] = test system: Bifidobacterium adolescentis; assay: MIC by agar dilution, drug-resistant isolates; type: cell-based; conditions: moxifloxacin R; 1 isolate
Description: as §1, §2, §3

Bacteroides uniformis = assay: MIC by agar dilution, drug-resistant isolates; type: cell-based
Description: as §1, §2, §3

Bacteroides ovatus = assay: MIC by agar dilution, drug-resistant isolates; type: cell-based
Description: as §1, §2, §3

[7] = test system: Eubacterium, non-speciated; assay: MIC by agar dilution, drug-resistant isolates; type: cell-based; conditions: 1 isolate
Description: as §1, §2, §3

[8] = test system: Fusobacterium necrophorum; assay: MIC by agar dilution, drug-resistant isolates; type: cell-based; conditions: clindamycin R; 1 isolate
Description: as §1, §2, §3

## O=c1ccc2ncc(=O)n3c2n1C[C@H]3CN1CCC(NCc2cc3c(cn2)OCCC3)CC1 [gepotidacin, (2R)-2-({4-[(3,4-dihydro-2H-pyrano[2,3-c]pyridin-6-ylmethyl)amino]-1-piperidinyl}methyl)-1,2-dihydro-3H,8H-2a,5,8a-triazaacenaphthylene-3,8-dione]
E. coli
  MIC90: 4 µg/mL (≈ 8.92 µM)
K. pneumoniae
  MIC: 4 µg/mL (≈ 8.92 µM)
[1]; ceftriaxone R
  Gepotidacin MIC range: 0.125 µg/mL
[1]; clindamycin R
  Gepotidacin MIC range: 0.06 µg/mL
[1]; imipenem R
  Gepotidacin MIC range: 0.125 µg/mL
[2]; clindamycin R, 1 isolate
  Gepotidacin MIC range: 0.03 µg/mL
[2]; imipenem R, 9 isolates
  Gepotidacin MIC range: 0.03 to 1 µg/mL
Porphyromonas somerae
  Gepotidacin MIC range: 0.06 µg/mL
Lactobacillus rhamnosus
  Gepotidacin MIC range: 0.06 to 1 µg/mL
[3]; clindamycin R, 4 isolates
  Gepotidacin MIC range: 0.125 µg/mL
[3]; moxifloxacin R, 1 isolate
  Gepotidacin MIC range: ≤0.015 µg/mL
Bacteroides fragilis; ceftriaxone R, 35 isolates
  Gepotidacin MIC range: 0.25 to 32 µg/mL
Bacteroides fragilis; clindamycin R, 22 isolates
  Gepotidacin MIC range: ≤0.015 to 32 µg/mL
Bacteroides fragilis; imipenem R, 1 isolate
  Gepotidacin MIC range: 0.5 µg/mL
Bacteroides fragilis; moxifloxacin R, 19 isolates
  Gepotidacin MIC range: 0.25 to 32 µg/mL
Bacteroides fragilis; pip/tazo R, 2 isolates
  Gepotidacin MIC range: 0.5 to 4 µg/mL
Bifidobacterium longum
  Gepotidacin MIC range: 0.12 µg/mL
Porphyromonas levii
  Gepotidacin MIC range: ≤0.015 µg/mL
Bacteroides vulgatus; ceftriaxone R, 7 isolates
  Gepotidacin MIC range: ≤0.015 to 4 µg/mL
Bacteroides vulgatus; clindamycin R, 4 isolates
  Gepotidacin MIC range: ≤0.015 to 2 µg/mL
Bacteroides vulgatus; moxifloxacin R, 3 isolates
  Gepotidacin MIC range: 0.25 to 4 µg/mL
[4]; ceftriaxone R
  Gepotidacin MIC range: 0.25 µg/mL
[4]; clindamycin R
  Gepotidacin MIC range: 0.25 µg/mL
Eubacterium nodatum
  Gepotidacin MIC range: 0.125 µg/mL
Bacteroides caccae; Bacteroides caccae, 1 drug-resistant isolate
  MIC: 8 µg/mL (≈ 17.8 µM)
Bacteroides caccae; ceftriaxone R, 2 isolates
  Gepotidacin MIC range: 0.05 to 8 µg/mL
Bacteroides caccae; clindamycin R, 1 isolate
  Gepotidacin MIC range: 8 µg/mL
Bacteroides caccae; moxifloxacin R, 1 isolate
  Gepotidacin MIC range: 0.5 µg/mL
Eubacterium limosum
  Gepotidacin MIC range: 0.25 to 0.5 µg/mL
Lactobacillus gasseri
  Gepotidacin MIC range: 0.5 to 1 µg/mL
[5]; ceftriaxone R, 43 isolates
  Gepotidacin MIC range: 0.5 to 16 µg/mL
[5]; clindamycin R, 21 isolates
  Gepotidacin MIC range: 0.5 to 8 µg/mL
[5]; moxifloxacin R, 6 isolates
  Gepotidacin MIC range: 0.5 to 8 µg/mL
Bifidobacterium breve
  Gepotidacin MIC range: 0.5 µg/mL
[6]
  Gepotidacin MIC range: 0.25 µg/mL
Bacteroides uniformis; ceftriaxone R, 3 isolates
  Gepotidacin MIC range: 1 to 2 µg/mL
Bacteroides uniformis; clindamycin R, 1 isolate
  Gepotidacin MIC range: 1 µg/mL
Bacteroides uniformis; moxifloxacin R, 1 isolate
  Gepotidacin MIC range: 1 µg/mL
Bacteroides ovatus; ceftriaxone R, 8 isolates
  Gepotidacin MIC range: 1 to 4 µg/mL
Bacteroides ovatus; clindamycin R, 4 isolates
  Gepotidacin MIC range: 1 to 4 µg/mL
Bacteroides ovatus; moxifloxacin R, 2 isolates
  Gepotidacin MIC range: 1 to 4 µg/mL
[7]; ceftriaxone R
  Gepotidacin MIC range: 2 µg/mL
[7]; clindamycin R
  Gepotidacin MIC range: 2 µg/mL
[7]; moxifloxacin R
  Gepotidacin MIC range: 2 µg/mL
[8]
  Gepotidacin MIC range: 0.25 µg/mL
